Experimental findings from EP4745153A1, “GLP-1, GIP AND GCG RECEPTOR […] USE THEREOF” (Jiangsu Hengrui Pharmaceuticals Co., Ltd., priority 2023, dated 2025) are described below.

Series [1] can be described thus: Pharmacokinetics in mice after single intravenous injection. Also noted: species or system C57 mice. The settings on record: male, C57, mouse, in vivo, iv. As for the experimental part:
Male C57 mice were used as test animals. The target compound was administered via a single intravenous injection, and the pharmacokinetic characteristics of the compound in C57 mice in vivo (plasma) were determined.
Male C57 mice, weighing approximately 25g, aged 4-6 weeks. After preparing the polypeptide compound solution using 1×PBS dissolving solution, the compound was administered intravenously at a dose of 200 nmol/kg, where each compound was administered to 3 animals. Blood samples of 60 µL were collected at 5 min, 15 min, 0.5 h, 1 h, 2 h, 4 h, 6 h, 24 h, 48 h and 72 h after the infusion was completed and transferred to centrifuge tubes containing EDTA-K2 anticoagulant. Whole blood samples were centrifuged at 4000 g for 5 min at 4°C. Plasma was separated and plasma samples were frozen and stored at -80 °C.
Sample pretreatment method: 30 µL of plasma samples was taken, and 120 µL of 0.1% formic acid in methanol containing 1 ng/mL internal standard verapamil was added. The mixture was vortexed for 5 min, and centrifuged at 10000 rpm for 10 min at low temperature. 70 µL of supernatant was taken, and 70 µL of water was added and mixed well. Analysis was performed by LC-MS instrument.
LC-MS analysis method: (1) chromatographic conditions: mobile phases A and B: 0.1% formic acid in water and 0.1% formic acid in acetonitrile, respectively; gradient elution mode; flow rate: 0.5 mL/min; injection volume: 10 µL; chromatographic column: nanomicro Unisil C18aq (4.6 mm × 150 mm, 5 µm); column temperature: 40°C. (2) Mass spectrometry conditions: For mass spectrometry, an electrospray ionization source (ESI), positive ion analysis mode, and multiple reaction monitoring (MRM) scanning mode were used.
For data processing, SCIEX OS (Version 2.1.6) software was used to quantify blood drug concentration data and PKSolver (Version 2.0) software was used to calculate pharmacokinetic parameters.

The target in series [2] is T1, human GLP-1R (Homo sapiens, UniProt P43220).
T1 construct: expressed in transfected cells; host or cells: CHO-K1 clonal cell line
T1 sequence (P43220 24-463): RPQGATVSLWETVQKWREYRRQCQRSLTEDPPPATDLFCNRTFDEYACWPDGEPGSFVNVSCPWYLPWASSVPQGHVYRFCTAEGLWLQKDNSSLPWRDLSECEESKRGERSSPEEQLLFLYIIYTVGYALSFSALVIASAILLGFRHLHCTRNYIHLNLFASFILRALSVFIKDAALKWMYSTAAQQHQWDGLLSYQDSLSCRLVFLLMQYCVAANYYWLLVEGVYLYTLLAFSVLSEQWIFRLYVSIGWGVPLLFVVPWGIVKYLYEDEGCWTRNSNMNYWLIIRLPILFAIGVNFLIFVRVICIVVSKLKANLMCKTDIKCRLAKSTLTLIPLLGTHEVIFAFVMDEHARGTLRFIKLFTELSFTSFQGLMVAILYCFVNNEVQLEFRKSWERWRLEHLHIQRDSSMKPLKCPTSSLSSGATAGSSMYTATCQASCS
In words: cAMP HTRF agonist activity assay in CHO-K1 cells expressing GLP-1R. For Activity against human GLP-1R (EC50 nM): 5% FBS, 0.1% Casein. The note with it: for EC50: read-out: Activity against human GLP-1R (EC50 nM). The format is cell-based. As for the experimental part:
Functional activity was determined in CHO-K1 clonal cell lines expressing GIPR, GLP-1R, and GCGR. […] Each recipient cell (5000 cells/well) was added to an SV 96-well plate (Cisbio, 66PL96025) and incubated with the prepared polypeptide at 37°Cfor 30 min. The resulting increase in intracellular cAMP was quantitatively measured using the cAMP-GS dynamic HTRF assay kit (Cisbio, 62AM4PEJ). Briefly, the intracellular cAMP levels were determined by adding cAMP-d2 conjugate in cell lysis buffer, followed by the antibody anti-cAMP-Eu cryptate (also in cell lysis buffer).
Using the maximum response percentage vs. the added polypeptide concentration, the relative EC50 values were derived through nonlinear regression analysis and fitted to a four-parameter logarithmic equation. For specific data, refer to Tables 7-1 to 7-8 below. […]

For orientation: clearance means the rate of elimination divided by the concentration. In general, half-life refers to the time in which the quantity being followed falls by half. A lower half-life goes with rapid decline. As usually defined, the EC50 is the concentration that produces a half-maximal response. Broadly, the pEC50 is −log10 of the EC50, conventionally taken in molar units. Lower therefore signals a large EC50.

The structures appear in SMILES notation. pEC50: −log10 of the molar value. Where two headings read alike, the source gives them in different places. Starred links: 1 amine or outer side, 2 acyl side, 3 side chain; linkers in the order of their positions; H or OH if unused. Non-standard residues stand in square brackets, D forms with d. Residues, ends and D or L forms follow the SMILES beside them. Groups on a side chain read outwards from the residue. *: point of attachment. C20 diacid = O=C(O)CCCCCCCCCCCCCCCCCCC(=O)*; γGlu = O=C(O)[C@H](CCC(=O)[*:2])N[*:1]; αMeK = C[C@](N)(CCCCN)C(=O)O; AEEA = NCCOCCOCC(=O)O; Aib = CC(C)(N)C(=O)O

With `CC[C@H](C)[C@H](NC(=O)[C@H](CO)NC(=O)[C@H](CC(C)C)NC(=O)[C@H](CC(=O)O)NC(=O)[C@H](CO)NC(=O)[C@@H](NC(=O)[C@H](Cc1ccccc1)NC(=O)[C@@H](NC(=O)CNC(=O)[C@H](Cc1c[nH]cn1)NC(=O)C(C)(C)NC(=O)[C@@H](N)Cc1c[nH]cn1)[C@@H](C)O)[C@@H](C)O)C(=O)N[C@@H](CC(C)C)C(=O)N[C@@H](CC(C)C)C(=O)N[C@@H](CCC(=O)O)C(=O)N[C@@H](CCCCNC(=O)COCCOCCNC(=O)COCCOCCNC(=O)CC[C@H](NC(=O)CCCCCCCCCCCCCCCCCCC(=O)O)C(=O)O)C(=O)N[C@@H](CCCCN)C(=O)N[C@@H](C)C(=O)N[C@@H](C)C(=O)N[C@@H](CCC(N)=O)C(=O)N[C@@H](CCC(=O)O)C(=O)N[C@@H](Cc1ccccc1)C(=O)N[C@H](C(=O)N[C@@H](CCC(=O)O)C(=O)N[C@@H](Cc1c[nH]c2ccccc12)C(=O)N[C@@H](CC(C)C)C(=O)N[C@@H](CC(C)C)C(=O)N[C@@H](C)C(=O)N[C@H](CCC(=O)O)C(=O)NCC(=O)N1CCC[C@H]1C(=O)N[C@@H](CO)C(=O)N[C@@H](CO)C(=O)NCC(=O)N[C@@H](C)C(=O)N1CCC[C@H]1C(=O)N1CCC[C@H]1C(=O)N1CCC[C@H]1C(=O)N[C@@H](CO)C(N)=O)C(C)C` [Compound 0144], in series [1], the clearance is 0.114 mL/min/kg and the half-life is 9.7 h. The EC50 in series [2] worked out at 0.035 nM.
With `CC(C)C[C@H](NC(=O)[C@H](CC(C)C)NC(=O)[C@H](Cc1c[nH]c2ccccc12)NC(=O)[C@H](CCC(=O)O)NC(=O)[C@@H](NC(=O)[C@H](Cc1ccccc1)NC(=O)[C@H](CCC(=O)O)NC(=O)[C@H](CCC(N)=O)NC(=O)[C@H](CCC(N)=O)NC(=O)[C@H](C)NC(=O)[C@H](CCCCN)NC(=O)[C@H](CCCCNC(=O)COCCOCCNC(=O)COCCOCCNC(=O)CC[C@H](NC(=O)CCCCCCCCCCCCCCCCCCC(=O)O)C(=O)O)NC(=O)[C@H](CCC(=O)O)NC(=O)[C@H](CC(C)C)NC(=O)[C@H](Cc1ccc(O)cc1)NC(=O)[C@](C)(CCCCN)NC(=O)[C@H](CO)NC(=O)[C@H](Cc1ccc(O)cc1)NC(=O)[C@H](CC(=O)O)NC(=O)[C@H](CO)NC(=O)[C@@H](NC(=O)[C@H](Cc1ccccc1)NC(=O)[C@@H](NC(=O)CNC(=O)[C@H](Cc1c[nH]cn1)NC(=O)C(C)(C)NC(=O)[C@@H](N)Cc1c[nH]cn1)[C@@H](C)O)[C@@H](C)O)C(C)C)C(=O)N[C@@H](C)C(=O)NCC(=O)NCC(=O)N1CCC[C@H]1C(=O)N[C@@H](CO)C(=O)N[C@@H](CO)C(=O)NCC(=O)N[C@@H](C)C(=O)N1CCC[C@H]1C(=O)N1CCC[C@H]1C(=O)N1CCC[C@H]1C(=O)N[C@@H](CO)C(N)=O` [Compound 0113] (H-H[Aib]HGTFTSDYS[αMeK]YLEK([AEEA-AEEA-γGlu-C20 diacid])KAQQEFVEWLLAGGPSSGAPPPS-NH2), the pEC50 in series [2] was 10.49.
`CC(C)C[C@H](NC(=O)[C@H](CC(C)C)NC(=O)[C@H](Cc1c[nH]c2ccccc12)NC(=O)[C@H](CCC(=O)O)NC(=O)[C@@H](NC(=O)[C@H](Cc1ccccc1)NC(=O)[C@H](CCC(=O)O)NC(=O)[C@H](CCC(N)=O)NC(=O)[C@H](C)NC(=O)C(C)(C)NC(=O)[C@H](CCCCN)NC(=O)[C@H](CCCCNC(=O)COCCOCCNC(=O)COCCOCCNC(=O)CC[C@H](NC(=O)CCCCCCCCCCCCCCCCCCC(=O)O)C(=O)O)NC(=O)[C@H](CCC(=O)O)NC(=O)[C@H](CC(C)C)NC(=O)[C@H](Cc1ccc(O)cc1)NC(=O)[C@H](CCCCN)NC(=O)[C@H](CO)NC(=O)[C@H](Cc1ccc(O)cc1)NC(=O)[C@H](CC(=O)O)NC(=O)[C@H](CO)NC(=O)[C@@H](NC(=O)[C@H](Cc1ccccc1)NC(=O)[C@@H](NC(=O)CNC(=O)[C@H](Cc1c[nH]cn1)NC(=O)C(C)(C)NC(=O)[C@@H](N)Cc1c[nH]cn1)[C@@H](C)O)[C@@H](C)O)C(C)C)C(=O)N[C@@H](C)C(=O)NCC(=O)NCC(=O)N1CCC[C@H]1C(=O)N[C@@H](CO)C(=O)N[C@@H](CO)C(=O)NCC(=O)N[C@@H](C)C(=O)N1CCC[C@H]1C(=O)N1CCC[C@H]1C(=O)N1CCC[C@H]1C(=O)N[C@@H](CO)C(N)=O` [Compound 0110] (H-H[Aib]HGTFTSDYSKYLEK([AEEA-AEEA-γGlu-C20 diacid])K[Aib]AQEFVEWLLAGGPSSGAPPPS-NH2): the EC50 in series [2] came to 0.016 nM.
On to `CC(C)C[C@H](NC(=O)[C@H](CC(C)C)NC(=O)[C@H](Cc1c[nH]c2ccccc12)NC(=O)[C@H](CCC(=O)O)NC(=O)[C@@H](NC(=O)[C@H](Cc1ccccc1)NC(=O)[C@H](CCC(=O)O)NC(=O)[C@H](CCC(N)=O)NC(=O)[C@H](C)NC(=O)[C@H](C)NC(=O)[C@H](CCCCN)NC(=O)[C@H](CCCCNC(=O)COCCOCCNC(=O)COCCOCCNC(=O)CC[C@H](NC(=O)CCCCCCCCCCCCCCCCCCC(=O)O)C(=O)O)NC(=O)[C@H](CCC(=O)O)NC(=O)[C@H](CC(C)C)NC(=O)C(C)(C)NC(=O)[C@H](CCCCN)NC(=O)[C@H](CO)NC(=O)[C@H](Cc1ccc(O)cc1)NC(=O)[C@H](CC(=O)O)NC(=O)[C@H](CO)NC(=O)[C@@H](NC(=O)[C@H](Cc1ccccc1)NC(=O)[C@@H](NC(=O)CNC(=O)[C@H](Cc1c[nH]cn1)NC(=O)C(C)(C)NC(=O)[C@@H](N)Cc1c[nH]cn1)[C@@H](C)O)[C@@H](C)O)C(C)C)C(=O)N[C@@H](C)C(=O)NCC(=O)NCC(=O)N1CCC[C@H]1C(=O)N[C@@H](CO)C(=O)N[C@@H](CO)C(=O)NCC(=O)N[C@@H](C)C(=O)N1CCC[C@H]1C(=O)N1CCC[C@H]1C(=O)N1CCC[C@H]1C(=O)N[C@@H](CO)C(N)=O` [Compound 0107], for which the EC50 in series [2] was found to be 0.016 nM.
For the compound `CC[C@H](C)[C@H](NC(=O)[C@H](CO)NC(=O)[C@H](Cc1ccc(O)cc1)NC(=O)[C@H](CC(=O)O)NC(=O)[C@H](CO)NC(=O)[C@@H](NC(=O)[C@H](Cc1ccccc1)NC(=O)[C@@H](NC(=O)CNC(=O)[C@H](CCC(N)=O)NC(=O)C(C)(C)NC(=O)[C@@H](N)Cc1c[nH]cn1)[C@@H](C)O)[C@@H](C)O)C(=O)N[C@@H](CC(C)C)C(=O)N[C@@H](CC(C)C)C(=O)N[C@@H](CCC(=O)O)C(=O)N[C@@H](CCCCNC(=O)COCCOCCNC(=O)COCCOCCNC(=O)CC[C@H](NC(=O)CCCCCCCCCCCCCCCCCCC(=O)O)C(=O)O)C(=O)N[C@@H](CCCCN)C(=O)N[C@@H](C)C(=O)N[C@@H](C)C(=O)N[C@@H](CCC(N)=O)C(=O)N[C@@H](CCC(=O)O)C(=O)N[C@@H](Cc1ccccc1)C(=O)N[C@H](C(=O)N[C@@H](CCC(=O)O)C(=O)N[C@@H](Cc1c[nH]c2ccccc12)C(=O)N[C@@H](CC(C)C)C(=O)N[C@@H](CC(C)C)C(=O)N[C@@H](C)C(=O)NCC(=O)NCC(=O)N1CCC[C@H]1C(=O)N[C@@H](CO)C(=O)N[C@@H](CO)C(=O)NCC(=O)N[C@@H](C)C(=O)N1CCC[C@H]1C(=O)N1CCC[C@H]1C(=O)N1CCC[C@H]1C(=O)N[C@@H](CO)C(N)=O)C(C)C` [Compound 0154] (H-H[Aib]QGTFTSDYSILLEK([AEEA-AEEA-γGlu-C20 diacid])KAAQEFVEWLLAGGPSSGAPPPS-NH2), the EC50 in series [2] came to 0.033 nM.
